Laboratory results taken from patent US7883874B2, “Galactooligosaccharide composition and the preparation thereof” (Clasado Inc., priority 2003, dated 2011).

Assay: Case study 1, inflammatory bowel disease (ulcerative colitis)
Type: in vivo, human
Settings: same patient, used previously
Text: A patient with diagnosed ulcerative colitis (one of 2 major forms of IBD) is cited as a case study on the effects of the GOS product, prepared according to Example 1 The patient had suffered from ulcerative colitis for 5 years and was free of medication prior to, and during, the test period. […] The patient had difficulty in digesting foods, was on a standard diet, suffered from nausea, diarrhoea and abdominal pain. The latter was left side large intestine, which correlated with the diagnosis of colitis based inflammation of the descending colon. A total daily GOS dose of 7 g/d (in 2 separate doses) was ingested. Within 4 days of intake, symptoms began to improve. The patient was better able to digest their diet, gut pains began to recede and nausea was reduced. […] The only change to the diet was the addition of GOS. Six weeks later, this effect has been maintained.

O=C(O)c1cc(/N=N/c2ccc(S(=O)(=O)Nc3ccccn3)cc2)ccc1O [sulphasalazine]
effect of earlier treatment on ulcerative colitis: no positive effect
